From PMC8911971, “Detection of Bacterial α-L-Fucosidases with an Ortho-Quinone Methide-Based Probe and Mapping of the Probe-Protein Adducts” (Molecules, 2022) come the findings set out here.

Type in all cases: biochemical
For one experiment, the target named is T1, AfcA (Bifidobacterium bifidum, UniProt Q6JV24).
T1 construct: catalytic GH95 fragment, residues 577-1474, C-terminal GGSGGSHHHHHHHH tag; pMAL-c4x-1-H(RBS)+ in E. coli BL21(DE3), Ni-NTA and Superdex 200 purified
In words: probe labelling, click biotinylation, blot chemiluminescence. The following applies: 350 uM probe, PBS pH 7.4, 37 C or room temperature (Figure 1); covalent after turnover to quinone methide.

A further experiment concerns the target T2, TmFuc (Thermotoga maritima, UniProt Q9WYE2).
T2 construct: gene TM_0306; recombinant, commercial (Megazyme)
T2 sequence (Q9WYE2 1-449): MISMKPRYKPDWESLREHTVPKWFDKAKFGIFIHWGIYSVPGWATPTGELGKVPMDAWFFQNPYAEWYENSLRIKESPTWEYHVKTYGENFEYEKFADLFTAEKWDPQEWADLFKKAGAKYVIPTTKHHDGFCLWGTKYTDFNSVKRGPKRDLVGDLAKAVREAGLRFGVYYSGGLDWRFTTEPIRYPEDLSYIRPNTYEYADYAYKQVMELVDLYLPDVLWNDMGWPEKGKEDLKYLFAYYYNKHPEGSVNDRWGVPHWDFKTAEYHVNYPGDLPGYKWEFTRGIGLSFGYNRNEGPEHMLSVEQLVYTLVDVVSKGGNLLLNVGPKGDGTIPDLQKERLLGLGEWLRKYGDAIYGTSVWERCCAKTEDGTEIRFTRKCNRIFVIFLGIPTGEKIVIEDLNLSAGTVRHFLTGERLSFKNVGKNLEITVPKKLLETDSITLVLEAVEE
In words: pepsin digest LC-MS/MS of probe adducts. The following applies: covalent after turnover to quinone methide; adducts at W80 or W105, outside the active site.

A further experiment deals with T3, BfFucH (Bacteroides fragilis, UniProt Q5LAD6).
T3 construct: gene BF9343_3156; codon-optimized gene in pET47b+, expressed in E. coli BL21(DE3), Ni-NTA and Superdex 200 purified; about 50 kDa
T3 sequence (Q5LAD6 21-434): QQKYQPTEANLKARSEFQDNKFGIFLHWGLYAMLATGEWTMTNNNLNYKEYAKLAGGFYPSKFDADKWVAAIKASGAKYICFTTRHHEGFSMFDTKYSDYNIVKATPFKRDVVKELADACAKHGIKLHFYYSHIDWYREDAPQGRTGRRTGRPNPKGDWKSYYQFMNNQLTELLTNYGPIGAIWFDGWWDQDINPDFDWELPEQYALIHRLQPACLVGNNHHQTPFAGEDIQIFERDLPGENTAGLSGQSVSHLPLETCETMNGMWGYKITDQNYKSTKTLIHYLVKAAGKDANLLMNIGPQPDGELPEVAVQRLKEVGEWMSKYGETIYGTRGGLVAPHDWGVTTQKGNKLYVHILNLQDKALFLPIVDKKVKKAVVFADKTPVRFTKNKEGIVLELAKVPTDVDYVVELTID
Nature of the experiment: block of AH062 probe labelling, blot chemiluminescence. The following applies: 100 uM inhibitor preincubated, 350 uM AH062, PBS pH 7.4; competitive.

T1 sequence (Q6JV24 entry or part of it): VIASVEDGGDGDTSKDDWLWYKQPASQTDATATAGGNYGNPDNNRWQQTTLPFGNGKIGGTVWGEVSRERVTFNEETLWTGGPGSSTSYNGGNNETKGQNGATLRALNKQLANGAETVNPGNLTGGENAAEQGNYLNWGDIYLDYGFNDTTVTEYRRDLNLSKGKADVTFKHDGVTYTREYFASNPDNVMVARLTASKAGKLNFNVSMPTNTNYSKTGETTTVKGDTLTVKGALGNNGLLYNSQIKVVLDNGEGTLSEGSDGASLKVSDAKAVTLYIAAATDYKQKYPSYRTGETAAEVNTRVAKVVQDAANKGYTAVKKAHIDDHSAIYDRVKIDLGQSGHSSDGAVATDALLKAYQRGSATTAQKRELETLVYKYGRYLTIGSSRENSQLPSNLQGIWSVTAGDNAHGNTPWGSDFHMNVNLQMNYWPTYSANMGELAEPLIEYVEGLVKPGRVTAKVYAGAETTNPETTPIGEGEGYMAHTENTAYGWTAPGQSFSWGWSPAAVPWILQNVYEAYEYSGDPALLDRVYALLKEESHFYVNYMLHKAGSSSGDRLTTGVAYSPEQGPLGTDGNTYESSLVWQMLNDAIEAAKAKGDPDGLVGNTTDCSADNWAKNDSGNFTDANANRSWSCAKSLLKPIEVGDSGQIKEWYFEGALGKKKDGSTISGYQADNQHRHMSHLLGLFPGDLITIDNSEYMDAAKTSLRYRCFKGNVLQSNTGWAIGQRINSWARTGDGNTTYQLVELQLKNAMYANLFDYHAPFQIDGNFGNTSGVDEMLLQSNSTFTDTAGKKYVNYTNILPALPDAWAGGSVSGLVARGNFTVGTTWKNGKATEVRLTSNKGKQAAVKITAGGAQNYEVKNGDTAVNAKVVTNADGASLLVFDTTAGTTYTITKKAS

On to `C[C@@H]1O[C@@H](Oc2ccc(NC(=O)CCOCCOCCOCCN=[N+]=[N-])cc2CF)[C@@H](O)[C@H](O)[C@@H]1O` [compound 12, 3-(2-(2-(2-azidoethoxy)ethoxy)ethoxy)-N-(3-(fluoromethyl)-4-(((2S,3S,4R,5S,6S)-3,4,5-trihydroxy-6-methyltetrahydro-2H-pyran-2-yl)oxy)phenyl)propanamide], for which the “probe labelling, click biotinylation, blot chemiluminescence” value on AfcA is given as “the probe detected the enzyme in a concentration-dependent manner”. Further, the “pepsin digest LC-MS/MS of probe adducts” value at TmFuc is recorded as “the quinone methide generated from AH062 had labeled either tryptophan W80 or W105”.

Take `C[C@@H]1NC[C@@H](O)[C@H](O)[C@@H]1O` [L-fuconojirimycin]: the “block of AH062 probe labelling, blot chemiluminescence” value on BfFucH is recorded as “distinguishing the active from the inhibited enzyme (prepared by preincubation with the competitive inhibitor L-fuconojirimycin”.
